From US20230255974A1, “USE OF THYROMIMETICS FOR THE TREATMENT OF CANCER” (THE UNIVERSITY OF VERMONT, priority 2020, published 2023) come the findings set out here.

In assay [1] the test system is SW1736 cells (SW-EV, SW-TRβ). Kind of assay: Apoptosis assay (PARP1 and caspase 3 cleavage, immunoblot). Type of assay: cell-based, human. The source says: Immunoblot Analysis. […] Proteins were resolved by polyacrylamide gel electrophoresis on 10% sodium dodecyl sulfate gels EC60752 (Life Technologies) and immobilized onto nitrocellulose membranes (GE Healthcare) by electroblot (Bio-Rad Laboratories). Specific proteins were detected by immunoblotting with the indicated antibodies (Table 4); immunoreactive proteins were detected by enhanced chemiluminescence (Thermo Scientific) on a ChemiDoc XRS+ (Bio-Rad Laboratories).
Apoptosis Assay. Cells were plated at a density of 50,000 cells/well and treated with vehicle (1 N NaOH) or 10^−8 M T3. After 5 days the cells were lysed for analysis by immunoblot. Poly (ADP-ribose) polymerase 1 (PARP1) and Caspase 3 cleavage were assessed to measure apoptotic signaling.
Immunoblot Analysis. […] Proteins were resolved by polyacrylamide gel electrophoresis on 10% sodium dodecyl sulfate gels EC60752 (Thermo Fisher Scientific) and immobilized onto nitrocellulose membranes (GE Healthcare, Chicago, Ill., USA) by electroblot (Bio-Rad Laboratories, Hercules, Calif., USA). Specific proteins were detected by immunoblotting with the indicated antibodies (Table 4); immunoreactive proteins were detected by enhanced chemiluminescence (Thermo Scientific) on a ChemiDoc XRS+ (Bio-Rad Laboratories).
Background: In western blotting, separated proteins are transferred to a membrane and probed.

Assay [2] concerns SW1736 cells (SW-EV, SW-TRβ). Put plainly: Tumorsphere assay, T3. The class given is cell-based, human. The note with it: 10^−8 M T3, seven days.
Assay [3] relates to SW1736 cells (SW-EV, SW-TRβ). Put plainly: Soft agar colony formation assay. Type of assay: cell-based, human. The note with it: 10^−8 M T3, 14 days. Here is the method:
Soft Agar Colony Formation Assay. Soft agar colony forming assays were used to assess anchorage-independent growth. A layer 0.50% agar in thyroid media (as described) was solidified in 6-well cell culture plates. SW-EV or SW-TRβ cells were plated in a second layer of 0.25% agar in thyroid media. 200 uL of thyroid media was maintained at the top of each well to prevent the agar from drying. […] Colonies were allowed to grow for 14 days. Live SW-EV and SW-TRβ colonies were detected via GFP expression using a ChemiDoc XRS+ (Bio-Rad Laboratories). Colonies were then counted with ImageJ using the Colony Counter plugin.

Assay [4] concerns MDA-MB-468 cells (EV, TRβ). The note with it: MDA-MB-468 in the presence of TRβ, 10 nM, 3 days. Here is the method: Triple negative breast cancer were examined next. […] TNBC cancers and other advanced solid tumors have lower endogenous levels of expression of TRβ. […] Cell migration was measured by scratch assay (FIG. 28). […] Data are mean+/−SD; *indicates p<0.05 determined by t-test.

Assay [5] has as its system SW1736 cells (SW-EV, SW-TRβ). Put plainly: Growth assay (live cell imaging), T3. The class given is cell-based, human. Here is the method:
Culture of thyroid cell lines. Anaplastic thyroid cancer cell lines (SW1736 and KTC-2) were cultured in RPMI 1640 growth media with L-glutamine (300 mg/L), sodium pyruvate and nonessential amino acids (1%) (Cellgro/Mediatech), supplemented with 10% fetal bovine serum (Life Technologies) and penicillin-streptomycin ([…]) (Cellgro/Mediatech) at 37° C., 5% CO2, and 100% humidity. The cell lines were generously provided by Dr. John Copland III (Mayo Clinic). Lentivirally modified SW1736 cells were generated as recently described (Gillis et al., “Thyroid Hormone Receptor β Suppression of RUNX2 is Mediated by Brahma Related Gene 1 Dependent Chromatin Remodeling.” Endocrinol. 159(6):2484-94 (2018), which is hereby incorporated by reference in its entirety) with either an empty vector (SW-EV) or to overexpress TRβ (SW-TRβ). SW-EV and SW-TRβ were grown in the above conditions with the addition of 1 μg/ml puromycin (Gold Bio). All cells were authenticated by the Vermont Integrative Genomics Resource at the University of Vermont using short tandem repeat profiles and Promega GenePrint10 System (SW1736, May 2019; KTC-2, October 2019).
Growth Assays. Cell growth was measured either through live cell imaging or by cell counting at discrete points. Live cell imaging was used to assess the growth kinetics of SW-EV and SW-TRβ. To perform live cell imaging, 5000 cells were plated per well in 24 well plates. After 24 hours in phenol red free, charcoal stripped media, media was supplemented with either 10^−8 M T3 or equivolume vehicle (NaOH). Every two hours cells were imaged with a Lionheart automated microscope (BioTek) and quantified with Gen5 software (BioTek). The cells entered the log phase of growth at approximately 48 hours, and the portion of the curve following this point was used to calculate the doubling time of the cells. In order to measure growth manually, 25,000 cells were plated per well in a six well plate. […] Every 24 hours cell counts were assessed by hemocytometer.

For assay [6], the system named is SW1736 cells (SW-EV, SW-TRβ). Put plainly: Migration (wound healing) assay, T3. Type of assay: cell-based, human. The note with it: SW-TRβ treated with T3 vs SW-EV. The procedure: Migration Assay. Cell migration was determined by wound healing assay. Cells were plated and allowed to grow to 100% confluency. Two hours prior to scratching, cells were treated with […] Mitomycin C. A scratch was performed with a P1000 pipette tip and debris was washed away with PBS. Migration media was supplemented with 10^−8 M T3. Images were obtained at 0, 24, 48, and 72 hours. Wound closure was measured using ImageJ macro “Wound Healing Tool” (http://dev.mri.cnrs.fr/projects/imagej-macros/wiki/Wound_Healing_Tool). Values were normalized so that the initial scratch was 0% closure.

The test system of a further assay is NthyOri thyroid cells. The note with it: normal-like NthyOri thyroid cells.

As to `N[C@@H](Cc1cc(I)c(Oc2ccc(O)c(I)c2)c(I)c1)C(=O)O` [T3, (2S)-2-amino-3-[4-(4-hydroxy-3-iodophenoxy)-3,5-diiodophenyl]propanoic acid], the “caspase 3 and PARP1 cleavage” value in assay [1] (SW-EV and SW-TRβ, T3, 5 days) is “induced cleavage of these apoptotic effectors only in SW-TRβ”. In assay [1] (SW-TRβ, five days), the “apoptosis (cleaved PARP and caspase)” value is recorded as “induces apoptosis”. Also, the “number of tumorspheres formed” value in assay [2] (SW-EV) is given as “no effect on the number of tumorspheres”. Moreover, the tumorsphere growth result in assay [2] (SW-TRβ) was “blocked almost all tumorsphere growth”. Further, the results for the anchorage-independent colony growth entry in assay [3] (SW-EV) and in assay [3] (SW-TRβ) were “reduced anchorage-independent colony growth” and “nearly ablated colony growth”, respectively. In addition, the “cell migration and growth” value in assay [4] was “reduced cell migration and growth”. Also, the growth rate entry in assay [5] (SW-EV, 10^−8 M T3 vs vehicle) was “modestly decreased the growth rate”. Also, the cellular growth entry in assay [5] (SW-TRβ (TRβ overexpression), 10^−8 M T3) is listed as “profoundly reduced cellular growth”. Also, in assay [5] (SW-TRβ, T3 treated), the doubling time entry is “greatest doubling time”. In assay [6], the “scratch closure (AUC)” value is “significantly reduced scratch closure”. Also, the “cell phenotypic or signaling changes” value in the assay with NthyOri thyroid cells is listed as “No cell phenotypic changes or signaling changes were observed”.
